Assay results: ChEMBL document CHEMBL1201862, “PubChem BioAssay data set” (2004)
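Where inhibition never reached the appropriate level, the endpoint shown equals the highest concentration tested. Otherwise, values were interpolated linearly from a five-concentration, 48-hour dose response in 96-well plates. GI50 = concentration required for 50% inhibition of growth.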 Active and inactive are the calls of the source. No stated cut-off is given here; in the data, active = GI50 up to about 1.1 µM and inactive = higher. *1 amine or outer side, *2 acyl side, *3 side chain or, on linkers, in order; H or OH if unused. Where a SMILES comes first, the peptide text is derived from it. Bridges are numbered along the chain shown (N, C = ends). Roman numbers before positions name the chains, in order. [ ]: non-standard residue; d: D form. Actinocin(9to1) = Cc1c2oc3c(C)ccc(C(=O)[*:1])c3nc-2c(C(=O)[*:2])c(N)c1=O; Hyp = O=C(O)[CH]1C[CH](O)CN1; NMeV = CN[CH](C(=O)O)C(C)C; Sar = CNCC(=O)O

Experiments:
Assay in all cases: inhibition of tumour cell growth, NCI panel, 48 h
Malme-3M = system: Malme-3M
LOX IMVI = system: LOX IMVI
T47D = system: T47D
SF-268 = system: SF-268
RPMI-8226 = system: RPMI-8226
SNB-75 = system: SNB-75
HL-60 = system: HL-60
MDA-MB-231 = system: MDA-MB-231
OVCAR-3 = system: OVCAR-3
UACC-257 = system: UACC-257
MDA-MB-435 = system: MDA-MB-435
A549 = system: A549
HOP-62 = system: HOP-62
SK-MEL-28 = system: SK-MEL-28
Hs-578T = system: Hs-578T
RXF 393 = system: RXF 393
HOP-92 = system: HOP-92
A498 = system: A498
786-0 = system: 786-0
SN12C = system: SN12C

Row | SMILES | GI50 (Malme-3M) | GI50 (LOX IMVI) | GI50 (T47D) | GI50 (SF-268) | GI50 (RPMI-8226) | GI50 (SNB-75) | GI50 (HL-60) | GI50 (MDA-MB-231) | GI50 (OVCAR-3) | GI50 (UACC-257) | GI50 (MDA-MB-435) | GI50 (A549) | GI50 (HOP-62) | GI50 (SK-MEL-28) | GI50 (Hs-578T) | GI50 (RXF 393) | GI50 (HOP-92) | GI50 (A498) | GI50 (786-0) | GI50 (SN12C)
1 | CC(=O)Nc1ccc(-c2cc(C(=O)O)c3cc4ccccc4cc3n2)cc1 | > 100 µM (inactive) | > 100 µM (inactive) | > 100 µM (inactive) | > 100 µM (inactive) | > 100 µM (inactive) | > 100 µM (inactive) | > 100 µM (inactive) | > 100 µM (inactive) | > 100 µM (inactive) | > 100 µM (inactive) | > 100 µM (inactive) | > 100 µM (inactive) | > 100 µM (inactive) | > 100 µM (inactive) | > 100 µM (inactive) | > 100 µM (inactive) | > 100 µM (inactive) | > 100 µM (inactive) | > 100 µM (inactive) | > 100 µM (inactive)
2 | N#Cc1nc(CCC(c2nc(C#N)c(N)o2)N2C(=O)c3ccccc3C2=O)oc1N (stereo not given) | > 100 µM (inactive) | > 100 µM (inactive) | > 100 µM (inactive) | > 100 µM (inactive) | > 100 µM (inactive) | > 100 µM (inactive) | > 100 µM (inactive) | > 100 µM (inactive) | > 100 µM (inactive) | > 100 µM (inactive) | > 100 µM (inactive) | > 100 µM (inactive) | > 100 µM (inactive) | > 100 µM (inactive) | > 100 µM (inactive) | > 100 µM (inactive) | > 100 µM (inactive) | > 100 µM (inactive) | > 100 µM (inactive) | > 100 µM (inactive)
3 | Cc1c2oc3c(C)ccc(C(=O)NC4C(=O)NC(C(C)C)C(=O)N5CC(O)CC5C(=O)N(C)CC(=O)N(C)C(C(C)C)C(=O)OC4C)c3nc-2c(C(=O)NC2C(=O)NC(C(C)C)C(=O)N3CC(O)CC3C(=O)N(C)CC(=O)N(C)C(C(C)C)C(=O)OC2C)c(N)c1=O (stereo not given) (I: TV[Hyp][Sar][NMeV] / II: TV[Hyp][Sar][NMeV]; ester I:1-I:C, II:1-II:C; linker I:N-II:N via Actinocin(9to1); configuration not given here) | > 1 µM (active) | > 1 µM (active) | > 1 µM (active) | > 1 µM (active) | > 1 µM (active) | > 1 µM (active) | > 1 µM (active) | > 1 µM (active) | > 1 µM (active) | > 1 µM (active) | > 1 µM (active) | > 1 µM (active) | > 1 µM (active) | > 1 µM (active) | > 1 µM (active) | > 1 µM (active) | > 1 µM (active) | > 1 µM (active) | > 1 µM (active) | > 1 µM (active)
4 | S=C(/N=C1/NCC(CN2CCN(c3ccccc3)CC2)O1)Nc1ccccc1 (stereo not given) | > 100 µM (inactive) | 25 µM (inactive) | 29.7 µM (inactive) | > 100 µM (inactive) | 42.3 µM (inactive) | > 100 µM (inactive) | 29 µM (inactive) | 35.9 µM (inactive) | 52.2 µM (inactive) | > 100 µM (inactive) | 70.8 µM (inactive) | 61 µM (inactive) | 77.3 µM (inactive) | > 100 µM (inactive) | > 100 µM (inactive) | 39.8 µM (inactive) | 92.3 µM (inactive) | > 100 µM (inactive) | 76.7 µM (inactive) | > 100 µM (inactive)
5 | O=C1C(Br)=C(c2ccccc2)O/C1=C/C(=O)c1ccc(Br)cc1 | 58.2 µM (inactive) | – | 32.9 µM (inactive) | 53.1 µM (inactive) | 19.1 µM (inactive) | > 100 µM (inactive) | 13 µM (inactive) | 34.8 µM (inactive) | 83.2 µM (inactive) | – | 42.1 µM (inactive) | – | > 100 µM (inactive) | 51.3 µM (inactive) | 50 µM (inactive) | 17.7 µM (inactive) | 49.1 µM (inactive) | > 100 µM (inactive) | 18.4 µM (inactive) | 8.75 µM (inactive)
6 | O=c1cc(/N=N\c2ccc(Cl)c(Cl)c2)[nH]c(=O)[nH]1 | 2.23 µM (inactive) | 1.76 µM (inactive) | 2.56 µM (inactive) | 2.88 µM (inactive) | 2.14 µM (inactive) | 9.62 µM (inactive) | 0.292 µM (active) | 1.85 µM (inactive) | 2.36 µM (inactive) | 2.38 µM (inactive) | 6.55 µM (inactive) | 15.3 µM (inactive) | 6.43 µM (inactive) | 1.73 µM (inactive) | 2.57 µM (inactive) | 1.77 µM (inactive) | 1.59 µM (inactive) | 15.3 µM (inactive) | 1.51 µM (inactive) | 2.11 µM (inactive)
7 | CCCCNCC(=O)O[C@]1(CC)C(=O)OCc2c1cc1n(c2=O)Cc2cc3ccccc3nc2-1 | 2.84 µM (inactive) | 0.0721 µM (active) | 0.219 µM (active) | 0.0851 µM (active) | 0.385 µM (active) | 0.098 µM (active) | 0.084 µM (active) | 29.9 µM (inactive) | 2.16 µM (inactive) | 0.646 µM (active) | 1.57 µM (inactive) | 0.185 µM (active) | < 0.0277 µM (active) | 2.17 µM (inactive) | 31.9 µM (inactive) | 0.385 µM (active) | 1.52 µM (inactive) | 0.741 µM (active) | 0.0482 µM (active) | 0.0622 µM (active)
8 | Cc1c(C(=O)OCc2ccccc2)[n+]([O-])c2cc(F)c(F)cc2[n+]1[O-] | 1.99 µM (inactive) | 0.421 µM (active) | 1.51 µM (inactive) | 1.25 µM (inactive) | 4.41 µM (inactive) | 2.7 µM (inactive) | 1.06 µM (active) | 1.8 µM (inactive) | 1.01 µM (active) | 2.19 µM (inactive) | 2.15 µM (inactive) | 3.2 µM (inactive) | 4.67 µM (inactive) | 2.06 µM (inactive) | 0.306 µM (active) | 2.38 µM (inactive) | 2.21 µM (inactive) | 1.42 µM (inactive) | 4.58 µM (inactive) | 1.94 µM (inactive)
9 | Fc1cccc(Cl)c1/C=N\N=C1c2ccccc2-c2ccccc21 | 76.7 µM (inactive) | > 100 µM (inactive) | 30 µM (inactive) | > 100 µM (inactive) | 33.9 µM (inactive) | – | > 100 µM (inactive) | 90.4 µM (inactive) | 69.2 µM (inactive) | > 100 µM (inactive) | 36 µM (inactive) | 70 µM (inactive) | 65.6 µM (inactive) | 76 µM (inactive) | 34.3 µM (inactive) | > 100 µM (inactive) | > 100 µM (inactive) | > 100 µM (inactive) | > 100 µM (inactive) | > 100 µM (inactive)
10 | CC[C@@]12CCCN3CC[C@]4(c5cccc(OC)c5N(C(C)=O)[C@@H]4CC1)[C@H]32 [ASPIDOSPERMINE] | > 100 µM (inactive) | 30.6 µM (inactive) | > 100 µM (inactive) | > 100 µM (inactive) | 38.2 µM (inactive) | – | 20.7 µM (inactive) | > 100 µM (inactive) | > 100 µM (inactive) | 31.8 µM (inactive) | 38.3 µM (inactive) | > 100 µM (inactive) | > 100 µM (inactive) | 80.2 µM (inactive) | 23.9 µM (inactive) | 60.4 µM (inactive) | 35.6 µM (inactive) | 42.7 µM (inactive) | 80.5 µM (inactive) | > 100 µM (inactive)
